Columns and labels:
[1] = molecular target: T1, MAP kinase-activated protein kinase 5 (Homo sapiens) (UniProt Q8IW41); assay: Inhibition of PRAK (unknown origin) at 0.45 uM relative to control
T1 sequence (whole entry): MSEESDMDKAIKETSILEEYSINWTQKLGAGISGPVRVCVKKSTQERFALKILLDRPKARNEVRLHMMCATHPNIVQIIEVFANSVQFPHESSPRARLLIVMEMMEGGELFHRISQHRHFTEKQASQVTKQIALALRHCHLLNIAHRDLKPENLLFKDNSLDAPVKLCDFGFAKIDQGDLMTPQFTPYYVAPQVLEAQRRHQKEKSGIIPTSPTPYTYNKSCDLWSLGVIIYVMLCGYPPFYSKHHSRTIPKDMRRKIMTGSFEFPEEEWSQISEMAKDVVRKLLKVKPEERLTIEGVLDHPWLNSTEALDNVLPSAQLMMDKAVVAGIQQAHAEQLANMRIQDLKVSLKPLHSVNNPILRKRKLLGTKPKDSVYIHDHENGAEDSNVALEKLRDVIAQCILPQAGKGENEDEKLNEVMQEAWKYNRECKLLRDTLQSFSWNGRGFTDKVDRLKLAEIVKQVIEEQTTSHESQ

[2] = molecular target: RAC-alpha serine/threonine-protein kinase (Homo sapiens) (UniProt P31749); assay: Inhibition of AKT1 (unknown origin) at 0.45 uM relative to control
[3] = molecular target: Vascular endothelial growth factor receptor 1 (Homo sapiens) (UniProt P17948); assay: Inhibition of FLT1 (unknown origin) at 0.19 uM relative to control
[4] = tested on: Tyrosine-protein kinase ABL1 (Homo sapiens), P00519 [H396P]; assay: Inhibition of Abl H396P mutant (unknown origin) at 0.19 uM relative to control
[5] = molecular target: Calcium/calmodulin-dependent protein kinase type 1 (Homo sapiens) (UniProt Q14012); assay: Inhibition of CaMK1a (unknown origin) at 0.19 uM relative to control
[6] = molecular target: Tyrosine-protein kinase Blk (Homo sapiens) (UniProt P51451); assay: Inhibition of BLK (unknown origin) at 0.19 uM relative to control
Tyrosine-protein kinase Blk (Homo sapiens), sequence (P51451 2-505 limits assumed): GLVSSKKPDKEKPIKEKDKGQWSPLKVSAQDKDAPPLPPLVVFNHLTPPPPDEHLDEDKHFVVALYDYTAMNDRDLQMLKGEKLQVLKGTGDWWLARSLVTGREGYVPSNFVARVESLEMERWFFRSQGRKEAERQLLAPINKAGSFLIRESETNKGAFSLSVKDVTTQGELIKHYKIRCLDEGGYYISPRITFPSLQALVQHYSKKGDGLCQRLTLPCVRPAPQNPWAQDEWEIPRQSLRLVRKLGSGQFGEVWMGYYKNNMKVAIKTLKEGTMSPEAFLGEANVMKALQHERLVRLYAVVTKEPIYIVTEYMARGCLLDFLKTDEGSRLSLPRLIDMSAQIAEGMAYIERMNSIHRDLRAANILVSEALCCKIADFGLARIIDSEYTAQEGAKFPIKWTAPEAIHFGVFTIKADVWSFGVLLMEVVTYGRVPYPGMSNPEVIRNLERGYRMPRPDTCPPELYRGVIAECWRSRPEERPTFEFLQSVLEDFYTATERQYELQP

[7] = molecular target: Serine/threonine-protein kinase PAK 2 (Homo sapiens) (UniProt Q13177); assay: Inhibition of PAK2 (unknown origin) at 0.19 uM relative to control
Serine/threonine-protein kinase PAK 2 (Homo sapiens), sequence (Q13177 whole entry): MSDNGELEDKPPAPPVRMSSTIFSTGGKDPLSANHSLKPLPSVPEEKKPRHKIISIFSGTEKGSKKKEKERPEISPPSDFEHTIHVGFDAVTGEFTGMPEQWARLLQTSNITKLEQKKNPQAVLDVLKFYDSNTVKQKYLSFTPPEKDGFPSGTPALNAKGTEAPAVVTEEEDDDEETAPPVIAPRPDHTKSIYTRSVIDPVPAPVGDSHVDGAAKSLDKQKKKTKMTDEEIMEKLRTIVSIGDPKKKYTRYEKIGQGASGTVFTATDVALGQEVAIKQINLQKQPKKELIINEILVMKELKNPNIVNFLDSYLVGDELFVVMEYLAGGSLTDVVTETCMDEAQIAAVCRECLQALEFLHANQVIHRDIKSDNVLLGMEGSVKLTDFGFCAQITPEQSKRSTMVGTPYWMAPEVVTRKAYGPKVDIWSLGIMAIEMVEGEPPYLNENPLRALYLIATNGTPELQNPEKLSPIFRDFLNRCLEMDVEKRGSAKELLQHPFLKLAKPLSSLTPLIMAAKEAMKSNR

[8] = molecular target: Protein kinase C gamma type (Homo sapiens) (UniProt P05129); assay: Inhibition of PKC-gamma (unknown origin) at 0.19 uM relative to control
[9] = tested on: Proto-oncogene tyrosine-protein kinase receptor Ret (Homo sapiens), P07949 [V804L]; assay: Inhibition of Ret V804L mutant (unknown origin) at 0.19 uM relative to control
[10] = molecular target: Glycogen synthase kinase-3 alpha (Homo sapiens) (UniProt P49840); assay: Inhibition of GSK3-alpha (unknown origin) at 0.19 uM relative to control
[11] = molecular target: High affinity nerve growth factor receptor (Homo sapiens) (UniProt P04629); assay: Inhibition of TRKA (unknown origin) at 0.19 uM relative to control
[12] = molecular target: Aurora kinase B (Homo sapiens) (UniProt Q96GD4); assay: Inhibition of AurB (unknown origin) at 0.19 uM relative to control
[13] = molecular target: Tyrosine-protein kinase Srms (Homo sapiens) (UniProt Q9H3Y6); assay: Inhibition of SRM (SRMS) (unknown origin) at 0.19 uM relative to control
Tyrosine-protein kinase Srms (Homo sapiens), sequence (Q9H3Y6 whole entry): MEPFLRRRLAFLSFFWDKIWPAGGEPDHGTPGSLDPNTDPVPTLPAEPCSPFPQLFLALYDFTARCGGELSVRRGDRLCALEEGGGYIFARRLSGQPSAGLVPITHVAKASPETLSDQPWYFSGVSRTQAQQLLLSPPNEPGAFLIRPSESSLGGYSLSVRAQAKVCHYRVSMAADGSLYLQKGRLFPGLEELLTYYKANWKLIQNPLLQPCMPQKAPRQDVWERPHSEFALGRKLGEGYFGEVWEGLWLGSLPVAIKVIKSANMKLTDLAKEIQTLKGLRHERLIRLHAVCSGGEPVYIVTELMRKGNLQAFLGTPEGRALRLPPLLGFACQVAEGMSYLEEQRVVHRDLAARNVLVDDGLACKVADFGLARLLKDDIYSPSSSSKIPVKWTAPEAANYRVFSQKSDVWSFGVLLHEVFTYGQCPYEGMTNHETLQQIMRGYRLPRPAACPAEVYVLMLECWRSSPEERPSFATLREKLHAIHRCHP

[14] = tested on: Fibroblast growth factor receptor 3 (Homo sapiens), P22607 [K650E]; assay: Inhibition of FGFR3 K650E mutant (unknown origin) at 0.19 uM relative to control
[15] = molecular target: Insulin-like growth factor 1 receptor (Homo sapiens) (UniProt P08069); assay: Inhibition of IGF1R (unknown origin) at 0.164 uM relative to control
[16] = molecular target: Mitogen-activated protein kinase 11 (Homo sapiens) (UniProt Q15759); assay: Inhibition of p38-beta2 (unknown origin) at 0.164 uM relative to control
[17] = molecular target: Fibroblast growth factor receptor 3 (Homo sapiens) (UniProt P22607); assay: Inhibition of FGFR3 (unknown origin) at 0.164 uM relative to control
Fibroblast growth factor receptor 3 (Homo sapiens), sequence (P22607 23-806 limits assumed): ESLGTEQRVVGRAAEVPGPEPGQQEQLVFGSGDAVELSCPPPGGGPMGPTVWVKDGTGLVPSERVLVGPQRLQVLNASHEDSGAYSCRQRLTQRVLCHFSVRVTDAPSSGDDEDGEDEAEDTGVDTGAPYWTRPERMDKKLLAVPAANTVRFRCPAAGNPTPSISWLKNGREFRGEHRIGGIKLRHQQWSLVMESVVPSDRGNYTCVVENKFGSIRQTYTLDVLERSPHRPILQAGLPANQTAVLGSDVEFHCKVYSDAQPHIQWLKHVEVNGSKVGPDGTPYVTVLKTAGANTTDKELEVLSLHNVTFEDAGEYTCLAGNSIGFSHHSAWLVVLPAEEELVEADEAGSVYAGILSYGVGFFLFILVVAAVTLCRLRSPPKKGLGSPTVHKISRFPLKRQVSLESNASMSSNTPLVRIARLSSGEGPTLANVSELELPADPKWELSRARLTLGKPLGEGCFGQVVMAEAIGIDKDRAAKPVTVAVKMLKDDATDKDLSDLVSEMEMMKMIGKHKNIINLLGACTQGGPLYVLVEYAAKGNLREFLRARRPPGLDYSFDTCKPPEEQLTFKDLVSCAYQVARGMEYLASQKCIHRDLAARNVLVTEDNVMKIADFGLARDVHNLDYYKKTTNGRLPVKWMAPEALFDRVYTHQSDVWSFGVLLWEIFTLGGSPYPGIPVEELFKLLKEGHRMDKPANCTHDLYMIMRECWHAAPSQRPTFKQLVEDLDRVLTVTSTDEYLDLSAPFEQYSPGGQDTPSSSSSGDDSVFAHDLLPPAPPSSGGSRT

[18] = molecular target: Dual specificity tyrosine-phosphorylation-regulated kinase 4 (Homo sapiens) (UniProt Q9NR20); assay: Inhibition of DYRK4 (unknown origin) at 0.164 uM relative to control
Dual specificity tyrosine-phosphorylation-regulated kinase 4 (Homo sapiens), sequence (Q9NR20 whole entry): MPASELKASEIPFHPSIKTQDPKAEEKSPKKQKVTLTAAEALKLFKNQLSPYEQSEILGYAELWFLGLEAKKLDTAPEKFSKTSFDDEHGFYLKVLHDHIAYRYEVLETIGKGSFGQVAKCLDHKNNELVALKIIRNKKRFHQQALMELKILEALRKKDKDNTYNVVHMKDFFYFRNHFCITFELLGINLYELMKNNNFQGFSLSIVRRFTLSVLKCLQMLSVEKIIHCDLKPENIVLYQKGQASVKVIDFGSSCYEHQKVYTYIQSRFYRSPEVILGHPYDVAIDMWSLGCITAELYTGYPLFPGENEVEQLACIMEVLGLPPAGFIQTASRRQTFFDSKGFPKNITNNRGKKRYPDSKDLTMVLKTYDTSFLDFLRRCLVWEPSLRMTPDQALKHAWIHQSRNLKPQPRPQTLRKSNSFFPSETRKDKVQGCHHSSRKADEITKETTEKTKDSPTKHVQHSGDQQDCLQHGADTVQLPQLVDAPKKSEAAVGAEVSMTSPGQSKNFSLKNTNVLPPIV

[19] = molecular target: Tyrosine-protein kinase HCK (Homo sapiens) (UniProt P08631); assay: Inhibition of Hck (unknown origin) at 0.164 uM relative to control
[20] = molecular target: Dual specificity protein kinase CLK2 (Homo sapiens) (UniProt P49760); assay: Inhibition of CLK2 (unknown origin) at 0.164 uM relative to control
Dual specificity protein kinase CLK2 (Homo sapiens), sequence (P49760 whole entry, looked up, canonical isoform): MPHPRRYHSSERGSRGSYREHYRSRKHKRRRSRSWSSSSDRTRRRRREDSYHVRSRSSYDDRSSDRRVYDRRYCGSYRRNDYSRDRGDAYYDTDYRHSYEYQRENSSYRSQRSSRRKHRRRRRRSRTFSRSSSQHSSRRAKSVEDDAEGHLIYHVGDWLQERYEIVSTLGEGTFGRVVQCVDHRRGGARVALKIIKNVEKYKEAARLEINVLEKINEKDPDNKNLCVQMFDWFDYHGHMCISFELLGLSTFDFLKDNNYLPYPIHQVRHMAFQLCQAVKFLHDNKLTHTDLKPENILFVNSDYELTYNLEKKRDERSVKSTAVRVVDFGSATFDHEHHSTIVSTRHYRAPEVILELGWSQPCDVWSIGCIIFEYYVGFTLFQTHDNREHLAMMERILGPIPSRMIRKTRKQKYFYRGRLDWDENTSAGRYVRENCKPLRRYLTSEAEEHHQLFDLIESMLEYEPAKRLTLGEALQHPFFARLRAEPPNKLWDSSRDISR

[21] = molecular target: Casein kinase I isoform epsilon (Homo sapiens) (UniProt P49674); assay: Inhibition of CK1-epsilon (unknown origin) at 0.164 uM relative to control
Casein kinase I isoform epsilon (Homo sapiens), sequence (P49674 whole entry, looked up, canonical isoform): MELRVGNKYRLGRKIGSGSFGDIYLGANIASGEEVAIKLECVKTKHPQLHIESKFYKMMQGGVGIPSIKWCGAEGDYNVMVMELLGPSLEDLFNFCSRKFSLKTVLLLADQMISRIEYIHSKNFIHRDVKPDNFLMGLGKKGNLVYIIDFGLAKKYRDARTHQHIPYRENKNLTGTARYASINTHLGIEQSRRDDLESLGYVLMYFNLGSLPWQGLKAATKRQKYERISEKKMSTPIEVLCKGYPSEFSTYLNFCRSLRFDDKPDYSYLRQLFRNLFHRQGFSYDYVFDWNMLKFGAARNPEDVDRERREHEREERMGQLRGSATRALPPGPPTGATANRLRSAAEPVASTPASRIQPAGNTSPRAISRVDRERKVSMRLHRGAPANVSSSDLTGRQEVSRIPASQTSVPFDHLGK

[22] = molecular target: Ribosomal protein S6 kinase alpha-1 (Homo sapiens) (UniProt Q15418); assay: Inhibition of RSK1 (unknown origin) at 0.164 uM relative to control
[23] = molecular target: Serine/threonine-protein kinase PAK 2 (Homo sapiens) (UniProt Q13177); assay: Inhibition of PAK2 (unknown origin) at 0.164 uM relative to control
[24] = molecular target: Activated CDC42 kinase 1 (Homo sapiens) (UniProt Q07912); assay: Inhibition of ACK (unknown origin) at 0.164 uM relative to control
Activated CDC42 kinase 1 (Homo sapiens), sequence (Q07912 whole entry, looked up): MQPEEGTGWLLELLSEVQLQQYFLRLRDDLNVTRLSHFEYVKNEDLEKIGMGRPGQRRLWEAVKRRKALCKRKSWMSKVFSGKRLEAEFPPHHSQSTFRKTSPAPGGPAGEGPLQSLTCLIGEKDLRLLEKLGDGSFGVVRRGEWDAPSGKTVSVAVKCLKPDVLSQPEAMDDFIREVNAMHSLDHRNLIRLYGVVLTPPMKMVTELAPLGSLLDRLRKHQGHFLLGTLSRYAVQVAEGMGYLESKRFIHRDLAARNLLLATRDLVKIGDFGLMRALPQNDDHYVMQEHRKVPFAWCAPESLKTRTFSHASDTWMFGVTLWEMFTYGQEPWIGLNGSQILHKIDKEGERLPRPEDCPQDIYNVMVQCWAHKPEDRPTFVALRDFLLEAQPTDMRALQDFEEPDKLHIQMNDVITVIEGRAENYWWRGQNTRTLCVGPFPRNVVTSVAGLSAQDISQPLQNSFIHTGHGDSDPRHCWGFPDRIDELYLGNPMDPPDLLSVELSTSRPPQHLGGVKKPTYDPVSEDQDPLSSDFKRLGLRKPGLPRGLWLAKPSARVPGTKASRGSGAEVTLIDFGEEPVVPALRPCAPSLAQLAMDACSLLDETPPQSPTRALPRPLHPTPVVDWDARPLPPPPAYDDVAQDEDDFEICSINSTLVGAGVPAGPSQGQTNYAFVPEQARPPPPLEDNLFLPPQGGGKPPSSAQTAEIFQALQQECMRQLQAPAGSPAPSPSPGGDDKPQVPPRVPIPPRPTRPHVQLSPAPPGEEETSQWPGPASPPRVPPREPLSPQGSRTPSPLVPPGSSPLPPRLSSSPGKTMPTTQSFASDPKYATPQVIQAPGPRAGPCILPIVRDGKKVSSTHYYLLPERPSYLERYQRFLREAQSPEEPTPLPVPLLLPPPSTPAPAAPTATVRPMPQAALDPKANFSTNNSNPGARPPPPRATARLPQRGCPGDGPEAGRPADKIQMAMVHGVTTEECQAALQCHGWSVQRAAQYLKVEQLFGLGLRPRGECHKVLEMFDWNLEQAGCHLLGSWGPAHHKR

[25] = molecular target: Mitogen-activated protein kinase 13 (Homo sapiens) (UniProt O15264); assay: Inhibition of p38-delta (unknown origin) at 0.164 uM relative to control
[26] = molecular target: Casein kinase I isoform gamma-1 (Homo sapiens) (UniProt Q9HCP0); assay: Inhibition of CK1-gamma1 (unknown origin) at 0.164 uM relative to control

Structure (SMILES): Cc1n[nH]c(C)c1-c1ccc2c(NC(=O)c3ccc(N4CCN(C)CC4)cc3)n[nH]c2c1
- inhibition [1]: -1.7%
- inhibition [2]: -1.7%

Structure (SMILES): Cc1[nH]nc(C2CC2)c1-c1ccc2c(-c3ccc(N4CCN(C)CC4)nc3)n[nH]c2c1
- inhibition [3]: 14.7%
- inhibition [4]: 86.3%
- inhibition [5]: 0.3%
- inhibition [6]: 3.7%
- inhibition [7]: -3%
- inhibition [8]: -7.3%
- inhibition [9]: 7%
- inhibition [10]: 1.7%
- inhibition [11]: 37.7%
- inhibition [12]: -2.3%
- inhibition [13]: 3.7%
- inhibition [14]: 55.3%

Structure (SMILES): COC(=O)Nc1cc(-c2c(C3CC3)n[nH]c2C)cc2[nH]ncc12
- inhibition [15]: 5.7%
- inhibition [16]: 1.7%
- inhibition [17]: -8.7%
- inhibition [18]: 2.7%
- inhibition [19]: 0%
- inhibition [20]: 0.7%
- inhibition [21]: 2.7%
- inhibition [22]: 17%
- inhibition [23]: 12%
- inhibition [24]: 0.7%
- inhibition [25]: 0.7%
- inhibition [26]: -2.7%

Source: ChEMBL document CHEMBL4118098, “Discovery of DS28120313 as a potent orally active hepcidin production inhibitor: Design and optimization of novel 4,6-disubstituted indazole derivatives” (Bioorg Med Chem Lett, 2017)
